For 22 molecules, EC50 results are on record in patent US10280159B2 (AbbVie Deutschland GmbH & Co. KG, priority 2015, dated 2019).

Holding throughout (type): cell-based
One test deals with T1, human S1PR1 (Homo sapiens, UniProt P21453).
T1 construct: host or cells: CHO-K1
The test can be described thus: Intracellular Ca2+ release (FLIPR) agonist potency, S1P1. The essentials: (§1)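 Readout: FLIPR fluorescence of intracellular Ca2+ release in CHO-K1 cells co-expressing receptor, aequorin and Gq/i5. Data were normalized to the phospho-fingolimod curve; EC50 from nonlinear fit. Phospho-fingolimod served as positive control.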

For another test, the target named is T2, human S1PR5 (Homo sapiens, UniProt Q9H228).
T2 construct: host or cells: CHO-K1
T2 sequence (Q9H228 whole entry): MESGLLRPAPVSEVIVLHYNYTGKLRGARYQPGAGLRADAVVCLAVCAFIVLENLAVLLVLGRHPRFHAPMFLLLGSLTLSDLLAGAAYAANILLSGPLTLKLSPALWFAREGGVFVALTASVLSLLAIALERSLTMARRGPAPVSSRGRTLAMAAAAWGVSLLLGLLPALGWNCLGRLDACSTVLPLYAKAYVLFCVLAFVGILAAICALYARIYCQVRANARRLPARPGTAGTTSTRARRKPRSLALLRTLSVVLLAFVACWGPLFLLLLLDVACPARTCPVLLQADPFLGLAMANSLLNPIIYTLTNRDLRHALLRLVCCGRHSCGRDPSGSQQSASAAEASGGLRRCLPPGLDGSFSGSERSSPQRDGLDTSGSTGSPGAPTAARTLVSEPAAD
The test can be described thus: Intracellular Ca2+ release (FLIPR) agonist potency, S1P5. The following applies: recombinant CHO-K1 cells expressing human S1PR5, aequorin, Gq/i5, Calcium 5 FLIPR. The method in brief: as §1

A further test concerns the target T3, human S1PR4 (Homo sapiens, UniProt O95977).
T3 construct: host or cells: CHO-K1
T3 sequence (O95977 1-384): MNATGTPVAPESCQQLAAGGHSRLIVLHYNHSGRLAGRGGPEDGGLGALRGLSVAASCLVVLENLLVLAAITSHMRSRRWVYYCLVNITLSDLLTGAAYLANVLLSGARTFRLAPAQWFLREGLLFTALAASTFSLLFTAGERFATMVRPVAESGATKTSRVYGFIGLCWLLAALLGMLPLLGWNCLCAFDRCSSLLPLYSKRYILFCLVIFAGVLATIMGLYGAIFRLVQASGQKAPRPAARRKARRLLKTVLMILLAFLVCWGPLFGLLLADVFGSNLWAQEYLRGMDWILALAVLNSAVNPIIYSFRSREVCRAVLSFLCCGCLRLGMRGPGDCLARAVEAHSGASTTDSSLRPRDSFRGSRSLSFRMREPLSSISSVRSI
The test can be described thus: Intracellular Ca2+ release (FLIPR) agonist potency, S1P4. The essentials: as §1

Setting [1] is: recombinant CHO-K1 cells expressing human S1PR1, aequorin, Gq/i5, Calcium 5 FLIPR, read-out: S1P1 EC50.
[2] abbreviates: recombinant CHO-K1 cells expressing human S1PR4, aequorin, Gq/i5, Calcium 5 FLIPR, read-out: S1P4 EC50.

Like-named read-outs stand apart in the source and are kept apart here. A value given as a limit tells only on which side of the number the result lay.

Broadly, the EC50 is the concentration giving half of the maximal effect.

T1 sequence (P21453 whole entry): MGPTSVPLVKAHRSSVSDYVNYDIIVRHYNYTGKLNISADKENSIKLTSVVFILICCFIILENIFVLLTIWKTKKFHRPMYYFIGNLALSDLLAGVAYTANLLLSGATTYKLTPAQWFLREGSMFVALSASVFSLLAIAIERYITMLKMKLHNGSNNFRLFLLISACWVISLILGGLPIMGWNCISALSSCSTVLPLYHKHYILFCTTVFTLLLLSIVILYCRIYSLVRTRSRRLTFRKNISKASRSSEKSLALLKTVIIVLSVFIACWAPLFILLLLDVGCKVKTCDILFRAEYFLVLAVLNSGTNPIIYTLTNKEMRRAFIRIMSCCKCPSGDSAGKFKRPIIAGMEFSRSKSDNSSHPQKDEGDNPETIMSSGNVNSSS

Take `CCc1cccc(Cl)c1COc1ccc2c(c1)OCC(NC1(CC(=O)O)CCCC1)C2` (stereo not drawn) [Compound 115, 2-(1-((7-((2-chloro-6-ethylbenzyl)oxy)chroman-3-yl)amino)cyclopentyl) acetic acid]: the results for the EC50 on human S1PR1 (setting [1]), at human S1PR5 (read-out: S1P5 EC50 range) and on human S1PR4 (setting [2]) were more than 1000 nM, less than 10 nM and less than 1000 nM, respectively.

For `CCc1cccc(Cl)c1COc1ccc2c(c1)OCC(NC1(CC(=O)O)CCC1)C2` (stereo not drawn) [Compound 116, 2-(1-((7-((2-chloro-6-ethylbenzyl)oxy)chroman-3-yl)amino)cyclobutyl)acetic acid], the 50% effective concentration (EC50) on human S1PR1 (setting [1]) is more than 1000 nM; at human S1PR5 (read-out: S1P5 EC50 range), less than 10 nM; at human S1PR4 (setting [2]), less than 1000 nM.

On to `CCc1cccc(F)c1COc1ccc2c(c1)OCC(NC1(CC(=O)O)CCCC1)C2` (stereo not drawn) [Compound 117, 2-(1-((7-((2-ethyl-6-fluorobenzyl)oxy)chroman-3-yl)amino)cyclopentyl) acetic acid], for which the EC50 at human S1PR1 (setting [1]) was more than 1000 nM; on human S1PR5 (read-out: S1P5 EC50 range) it was less than 10 nM; at human S1PR4 (setting [2]), less than 1000 nM.

With `CCc1cccc(F)c1COc1ccc2c(c1)OCC(NC1(CC(=O)O)CCC1)C2` (stereo not drawn) [Compound 118, 2-(1-((7-((2-ethyl-6-fluorobenzyl)oxy)chroman-3-yl)amino)cyclobutyl)acetic acid], the concentration for a half-maximal effect (EC50) at human S1PR1 (setting [1]) is more than 1000 nM; on human S1PR5 (read-out: S1P5 EC50 range), less than 10 nM; on human S1PR4 (setting [2]) it was less than 1000 nM.

In the case of `O=C(O)C1(NC2COc3cc(OCc4c(Cl)cccc4Cl)ccc3C2)CCC1` (stereo not drawn) [Compound 119, 1-((7-((2,6-dichlorobenzyl)oxy)chroman-3-yl)amino)cyclobutane-1-carboxylic acid], the EC50 on human S1PR1 (setting [1]) is more than 1000 nM; on human S1PR5 (read-out: S1P5 EC50 range), 1000 to 10000 nM; at human S1PR4 (setting [2]) it was more than 1000 nM.

Consider `CCc1cccc(Cl)c1COc1ccc2c(c1)OCC(NC1(C(=O)O)CCC1)C2` (stereo not drawn) [Compound 120, 1-((7-((2-chloro-6-ethylbenzyl)oxy)chroman-3-yl)amino)cyclobutane-1-carboxylic acid], for which the concentration giving a half-maximal response (EC50) is less than 1000 nM on human S1PR1 (setting [1]), 10 to 100 nM on human S1PR5 (read-out: S1P5 EC50 range) and less than 1000 nM on human S1PR4 (setting [2]).

Turning to `CCc1cccc(Cl)c1COc1ccc2c(c1)OCC(NC13CC(C(=O)O)(C1)C3)C2` (stereo not drawn) [Compound 121, 3-((7-((2-chloro-6-ethylbenzyl)oxy)chroman-3-yl)amino)bicyclo[1.1.1]pentane-1-carboxylic acid], the figures for the concentration for a half-maximal effect (EC50) at human S1PR1 (setting [1]), on human S1PR5 (read-out: S1P5 EC50 range) and on human S1PR4 (setting [2]) were more than 1000 nM, 100 to 1000 nM and less than 1000 nM, respectively.

`CCc1cccc(F)c1COc1ccc2c(c1)OCC(NC13CC(C(=O)O)(C1)C3)C2` (stereo not drawn) [Compound 122, 3-((7-((2-ethyl-6-fluorobenzyl)oxy)chroman-3-yl)amino)bicyclo[1.1.1]pentane-1-carboxylic acid]: the half-maximal effective concentration (EC50) was more than 1000 nM on human S1PR1 (setting [1]), 10 to 100 nM on human S1PR5 (read-out: S1P5 EC50 range) and less than 1000 nM on human S1PR4 (setting [2]).

As for `CCc1cccc(Cl)c1COc1ccc2c(c1)OCC(N(C)CC(=O)O)C2` (stereo not drawn) [Compound 124, N-(7-((2-chloro-6-ethylbenzyl)oxy)chroman-3-yl)-N-methylglycine], the 50% effective concentration (EC50) is more than 1000 nM on human S1PR1 (setting [1]), less than 10 nM at human S1PR5 (read-out: S1P5 EC50 range) and less than 1000 nM on human S1PR4 (setting [2]).

With `CCc1cccc(Cl)c1COc1ccc2c(c1)OCC(N1CCC(CC(=O)O)C1)C2` (stereo not drawn) [Compound 125, 2-(1-(7-((2-chloro-6-ethylbenzyl)oxy)chroman-3-yl)pyrrolidin-3-yl)acetic acid], the EC50 at human S1PR1 (setting [1]) was more than 1000 nM; on human S1PR5 (read-out: S1P5 EC50 range), less than 10 nM; on human S1PR4 (setting [2]), less than 1000 nM.

With `CCc1cccc(F)c1COc1ccc2c(c1)OCC(NCC(=O)O)C2` (stereo not drawn) [Compound 126, (7-((2-ethyl-6-fluorobenzyl)oxy)chroman-3-yl)glycine], the EC50 on human S1PR1 (setting [1]) is more than 1000 nM; on human S1PR5 (read-out: S1P5 EC50 range), less than 10 nM; on human S1PR4 (setting [2]) it was less than 1000 nM.

In the case of `CCc1cccc(F)c1COc1ccc2c(c1)OCC(N1CCC(C(=O)O)C1)C2` (stereo not drawn) [Compound 127, 1-(7-((2-ethyl-6-fluorobenzyl)oxy)chroman-3-yl)pyrrolidine-3-carboxylic acid], the figures for the half-maximal effective concentration (EC50) on human S1PR1 (setting [1]), at human S1PR5 (read-out: S1P5 EC50 range) and on human S1PR4 (setting [2]) were more than 1000 nM, less than 10 nM and less than 1000 nM, respectively.

Turning to `CCc1cccc(Cl)c1COc1ccc2c(c1)OCC(N1CCC(C(=O)O)C1)C2` (stereo not drawn) [Compound 128, 1-(7-((2-chloro-6-ethylbenzyl)oxy)chroman-3-yl)pyrrolidine-3-carboxylic acid], the concentration for a half-maximal effect (EC50) on human S1PR1 (setting [1]) was more than 1000 nM; on human S1PR5 (read-out: S1P5 EC50 range), less than 10 nM; at human S1PR4 (setting [2]) it was less than 1000 nM.

For `CCc1cccc(F)c1COc1ccc2c(c1)OCC(NC1(CC(=O)O)CC1)C2` (stereo not drawn) [Compound 129, 2-(1-((7-((2-ethyl-6-fluorobenzyl)oxy)chroman-3-yl)amino)cyclopropyl) acetic acid], the figures for the EC50 at human S1PR1 (setting [1]), on human S1PR5 (read-out: S1P5 EC50 range) and on human S1PR4 (setting [2]) were more than 1000 nM, less than 10 nM and more than 1000 nM, respectively.

For `CCc1cccc(F)c1COc1ccc2c(c1)OCC(N1CCC(CC(=O)O)C1)C2` (stereo not drawn) [Compound 130, 2-(1-(7-((2-ethyl-6-fluorobenzyl)oxy)chroman-3-yl)pyrrolidin-3-yl)acetic acid], the half-maximal effective concentration (EC50) on human S1PR1 (setting [1]) was more than 1000 nM; at human S1PR5 (read-out: S1P5 EC50 range) it was less than 10 nM; on human S1PR4 (setting [2]) it was less than 1000 nM.

`O=C(O)CNC1COc2cc(-c3ccc(OCc4cccc(F)c4F)cc3)ccc2C1` (stereo not drawn) [Compound 131, (7-(4-((2,3-difluorobenzyl)oxy)phenyl)chroman-3-yl)glycine]: the EC50 is less than 1000 nM on human S1PR1 (setting [1]), less than 10 nM at human S1PR5 (read-out: S1P5 EC50 range) and more than 1000 nM at human S1PR4 (setting [2]).

On to `O=C(O)CNC1COc2cc(OCc3ccc(OCc4cccc(Cl)c4)cc3)ccc2C1` (stereo not drawn) [Compound 132, (7-((4-((3-chlorobenzyl)oxy)benzyl)oxy)chroman-3-yl)glycine], for which the EC50 was more than 1000 nM at human S1PR1 (setting [1]), less than 10 nM at human S1PR5 (read-out: S1P5 EC50 range) and more than 1000 nM on human S1PR4 (setting [2]).

On to `CN(CC(=O)O)C1COc2cc(OCc3ccc(OCc4cccc(F)c4F)cc3)ccc2C1` (stereo not drawn) [Compound 133, N-(7-((4-((2,3-difluorobenzyl)oxy)benzyl)oxy)chroman-3-yl)-N-methylglycine], for which the values for the EC50 at human S1PR1 (setting [1]), at human S1PR5 (read-out: S1P5 EC50 range) and at human S1PR4 (setting [2]) were less than 1000 nM, less than 10 nM and more than 1000 nM, respectively.

Consider `CN(CC(=O)O)C1COc2cc(OCc3ccc(OCc4cccc(Cl)c4)cc3)ccc2C1` (stereo not drawn) [Compound 134, N-(7-((4-((3-chlorobenzyl)oxy)benzyl)oxy)chroman-3-yl)-N-methylglycine], for which the EC50 was more than 1000 nM on human S1PR1 (setting [1]), less than 10 nM on human S1PR5 (read-out: S1P5 EC50 range) and more than 1000 nM on human S1PR4 (setting [2]).

`CN(CC(=O)O)C1COc2cc(OCc3ccc(OCc4ccc(Cl)cc4)cc3)ccc2C1` (stereo not drawn) [Compound 135, N-(7-((4-((4-chlorobenzyl)oxy)benzyl)oxy)chroman-3-yl)-N-methylglycine]: the 50% effective concentration (EC50) at human S1PR1 (setting [1]) was more than 1000 nM; on human S1PR5 (read-out: S1P5 EC50 range) it was 10 to 100 nM; at human S1PR4 (setting [2]), more than 1000 nM.

With `CCc1cccc(F)c1COc1ccc2c(c1)OC[C@@H](NCc1cc(O)no1)C2` [Compound 136, (S)-5-(((7-((2-ethyl-6-fluorobenzyl)oxy)chroman-3-yl)amino)methyl)isoxazol-3-ol], the EC50 at human S1PR1 was more than 1000 nM; at human S1PR5 (S1P5 EC50 range), less than 10 nM; on human S1PR4 it was less than 1000 nM.

With `CC1(C(=O)O)CN([C@@H]2COc3cc(OCc4c(Cl)cccc4Cl)ccc3C2)C1` [Compound 138, (S)-1-(7-((2,6-dichlorobenzyl)oxy)chroman-3-yl)-3-methylazetidine-3-carboxylic acid], the 50% effective concentration (EC50) at human S1PR1 (setting [1]) was more than 1000 nM; at human S1PR5 (read-out: S1P5 EC50 range), less than 10 nM; at human S1PR4 (setting [2]) it was more than 1000 nM.
